Measured values from patent US20230060873A1, “COMPOUNDS AND METHODS FOR FORMING ION CHANNELS IN BIOLOGICAL MEMBRANES” (Washington University, priority 2021, published 2023).

Columns and labels:
[1] = test system: B. subtilis membrane; test: DiSC3(5) depolarization assay, lariat ethers; type: cell-based, Bacillus subtilis; settings: 2 μM compound; 60 mM KCl, NaCl or NMDG-Cl; NMDG-MeSO3 solution; 25° C
Experimental: Dialkylated lariat ethers LEC6-LEC14 were then tested for their ability to depolarize a B. subtilis membrane using the fluorescent dye 3,3-dipropylthiadicarbocyanine (DiSC3(5)), which undergoes membrane voltage-dependent partitioning between the intracellular and the extracellular medium. FIGS. 23-31 show the time course of the DiSC3(5) fluorescence due to the activity of dialkylated lariat ethers with alkyl chains 6 to 14 carbons in length. The experiment was performed in a NMDG-MeSO3 solution (100 mM NMDG, 10 mM HEPES, pH adjusted to 7.4 with methanesulfonic acid). The events are: t1, addition of dye; t2, addition of B. subtilis; t3, addition of a 2 M KCl or a 2 M NMDG-Cl solution up to a final concentration of 60 mM; t4, addition of dialkylated lariat ether up to 2 μM. Control experiments were performed that were similar to the two previously described experiments, with the exception that additional NMDG-MeSO3 solution without cells was added at timepoint t2. The experiments were normalized relative to the final fluorescence intensity in the control experiments, as described below.
To conduct the experiments shown in FIGS. 23-31, a 2-mL liquid culture of B. subtilis cells was grown at 37° C. in LB media until OD600=0.600, and then collected by centrifugation at 2000 rpm during 3 min. The bacteria were washed once in NMDG-MeSO3 solution (100 mM NMDG, 10 mM HEPES, pH adjusted to 7.4 with methanesulfonic acid) or dextrose solution (200 mM dextrose, 10 mM Tris, pH adjusted to 7.4 with HCl) depending on the experiment. The centrifugation step was repeated and the bacteria were resuspended until OD600=1.0 in the same solution. The working dye solution was a 200 μM solution of DiSC3(5) (3,3′-dipropylthiadicarbocyanine iodide; Tokyo Chemical Industry) in DMSO. […] After 150 sec (timepoint t3, 250 sec) the fluorescence stabilized to a minimum intensity and 100 μL of 2M NMDG-Cl, 2M NaCl or 2 M KCl solution was added to reach a about 60 mM final concentration of the salt. […] Fluorescence intensity was recorded each second using a Horiba Fluoromax 4 spectrometer (excitation wavelength=640 nm; emission wavelength=670 nm). […] To normalize the fluorescence, experiments in the same conditions but without adding bacteria were performed, normalization was done by dividing the fluorescence by the final fluorescence level of these experiments.
Cell hyperpolarization (more negatively charged inside the cell) results in an uptake of the dye, while cell membrane depolarization (more positively charged inside the cell) results in a release of the dye. The accumulation of the dye in the interior of the cell can be detected by a decrease in fluorescence due to self-quenching, which enables the dye to be utilized as an indirect reporter of changes in cell membrane voltage. […]

[2] = test system: B. subtilis cells; test: Lactate dehydrogenase release (resofurin fluorescence), MAcBCE/MAkBCE and controls; type: cell-based, Bacillus subtilis; settings: 37° C, potassium lactate/NAD+ solution
Experimental: A 2 mL liquid culture of transformed B. subtilis cells was grown at 37° C. in LB media supplemented with […] kanamycin, until OD600=0.6. Cells were collected by centrifugation at 2000 rpm over 3 min. The bacterial pellet was washed twice in lactate/NAD^+ solution (95 mM potassium lactate, 10 mM nicotinamide adenine dinucleotide (NAD^+), 10 mM HEPES, pH adjusted to 7.4 with KOH). After the last centrifugation step, the bacteria were resuspended until OD600=1.0 in the lactate/NAD^+ solution, then diluted 100× in the same solution. The working fluorophore solution was a 1 mM of resazurin sodium salt (Alfa Cesar) in water. The experiment was started with 3 mL of lactate/NAD^+ solution in a quartz cuvette, then 3.1 μL of resazurin solution was added (timepoint t1, 50 sec) for a 1 μM final concentration, followed by the addition of 100 μL of the diluted B. subtilis suspension (timepoint t2, 100 sec). After 150 sec (timepoint t3, 250 sec), 10 μL of diaphorase (Worthinton Biochemical Corporation) 10 mg/mL solution was added. The final step involved the addition of 0.62 μL of a 10 mM stock solution of dialkylated diaza lariat ether (LEC10) in TFE (timepoint t4, 400 sec), for a final LEC10 concentration of 2 μM; or 3.1 μL of a 2 mM stock solution of valinomycin in DMSO, for a final valinomycin concentration of 2 μM; or 3.1 μL of a 20 mg/mL stock solution of lysozyme in lactate/NAD^+ solution, for a final lysozyme concentration of 20 μg/mL; or 3.1 μL of 10 mM stock solution of each MAcBCE or MAkBCE compounds in TFE, for final concentrations of 10 μM. Fluorescence intensity was recorded each second using a Horiba Fluoromax 4 spectrometer (λexcitation=550 nm; λemission=583 nm). […] To normalize, the fluorescence intensity was divided by the fluorescence level just before timepoint t4. […]
Experiments were repeated at least three times per condition. To normalize, the fluorescence intensity was divided by the fluorescence level just before timepoint t4.

Row | Compound | relative DiSC3(5) release in the presence of different cations [1] | resofurin fluorescence (LDH release) ([2]; 2 μM) | resofurin fluorescence (LDH release) ([2]; 20 μg/mL)
1 | CC(C)[C@@H]1NC(=O)[C@H](C)OC(=O)[C@@H](C(C)C)NC(=O)[C@@H](C(C)C)OC(=O)[C@H](C(C)C)NC(=O)[C@H](C)OC(=O)[C@@H](C(C)C)NC(=O)[C@@H](C(C)C)OC(=O)[C@H](C(C)C)NC(=O)[C@H](C)OC(=O)[C@@H](C(C)C)NC(=O)[C@@H](C(C)C)OC1=O [valinomycin] | only when K^+ was added | no effect | –
2 | lysozyme | – | – | increase in the resofurin fluorescence levels
